Here are results for one compound from publication PMC6017357, “In Vitro Inhibitory Effects of Synthetic Cannabinoid EAM-2201 on Cytochrome P450 and UDP-Glucuronosyltransferase Enzyme Activities in Human Liver Microsomes” (Molecules : A Journal of Synthetic Chemistry and Natural …, 2018).

Structures are written as SMILES.

One series deals with T1, CYP2D6 (Homo sapiens, UniProt P10635).
T1 construct: from tissue; host or cells: ultrapooled human liver microsomes
Nature of the series: CYP2D6-mediated bufuralol 1′-hydroxylation in pooled human liver microsomes. Format: in vitro ADME. The following applies: up to 50 µM, without 30-min preincubation. On the procedure:
The inhibitory potential (IC50 values) of EAM-2201 on CYP1A2, CYP2A6, CYP2C8, CYP2C9, CYP2C19, CYP2D6 and CYP3A4 were evaluated using ultrapooled human liver microsomes and a cocktail of seven CYP substrates followed by LC-tandem mass spectrometry (LC-MS/MS) as previously described. […] Aliquots (5 µL) of the diluted supernatants were analyzed using LC-MS/MS. […]
The metabolites formed from CYP substrates were simultaneously quantified using our previously described LC-MS/MS method. […] Quantification was performed by selected reaction monitoring (SRM) of the [M + H]^+ ion and the related product ion for each metabolite: acetaminophen, 152.1 > 110.3; N-desethylamodiaquine, 328.1 > 283.0; 7-hydroxycoumarin, 163.0 > 107.2; 4-hydroxybupropion, 256.1 > 238.0; 4′-hydroxydiclofenac, 312.0 > 231.1; 4′-hydroxy-mephenytoin, 235.1 > 150.1; 1′-hydroxybufuralol, 278.1 > 186.1; 1′-hydroxymidazolam, 341.9 > 324.0; ^13C2,^15N-acetaminophen, 155.1 > 111.2; and d9-1′-hydroxybufuralol, 287.2 > 187.0. […]
A general note: Liver microsomes are a subcellular fraction often used to study metabolism.

Another series deals with CYP3A4 (Homo sapiens, UniProt P08684). Nature of the series: CYP3A4-mediated midazolam 1′-hydroxylation in human liver microsomes (IC50 and time-dependent inhibition). It is filed as in vitro ADME. Details: from tissue; host or cells: ultrapooled human liver microsomes. As for the experimental part:
(§1) The inhibitory potential (IC50 values) of EAM-2201 on CYP1A2, CYP2A6, CYP2C8, CYP2C9, CYP2C19, CYP2D6 and CYP3A4 were evaluated using ultrapooled human liver microsomes and a cocktail of seven CYP substrates followed by LC-tandem mass spectrometry (LC-MS/MS) as previously described. Each incubation mixture was prepared in a total volume of 100 µL as follows: pooled human liver microsomes (5.2 pmol CYP), 1.0 mM NADPH, 10 mM magnesium chloride, 50 mM potassium phosphate buffer (pH 7.4), various concentrations of EAM-2201 in DMSO (final concentrations of 0.1–50 µM, 0.5% DMSO) and a cocktail of seven CYP probe substrates in 50% acetonitrile (0.5% acetonitrile), including 50 µM phenacetin, 2.5 µM coumarin, 2.0 µM amodiaquine, 10 µM diclofenac, 100 µM [S]-mephenytoin, 5 µM bufuralol and 2.5 µM midazolam in 50% acetonitrile. After a 3-min preincubation at 37 °C, the reactions were initiated by adding NADPH and incubation proceeded for 15 min at 37 °C in a shaking water bath. The reactions were stopped by adding 100 µL of ice-cold methanol containing internal standards (^13C2,^15N-acetaminophen for acetaminophen and N-desethylamodiaquine; d9-1′-hydroxybufuralol for 4′-hydroxydiclofenac, 7-hydroxycoumarin, 4′-hydroxymephenytoin, 1′-hydroxybufuralol and 1′-hydroxy-midazolam). The incubation mixtures were centrifuged at 13,000× g for 4 min at 4 °C and 50 µL of each supernatant was diluted in 50 µL of water. Aliquots (5 µL) of the diluted supernatants were analyzed using LC-MS/MS. All assays were performed in triplicate and the mean values were used in calculations. […] Each reaction was initiated by adding the seven-CYP probe substrate cocktail described above.
(§2) The time-dependent inhibitory effects of EAM-2201 on CYP2C8, CYP2C9, CYP2C19 and CYP3A4 activities in ultrapooled human liver microsomes were evaluated using time- and concentration-dependent inhibition assays. Ultrapooled human liver microsomes (26.0 pmol CYP) were pre-incubated with various concentrations of EAM-2201 in DMSO (0.5% DMSO) in 50 mM potassium phosphate buffer (pH 7.4) in the presence of NADPH for predetermined time periods: 5–15 min for CYP2C8 activity, 5–20 min for CYP2C9 activity and 15–40 min for CYP2C19 and CYP3A4 activities. […] Aliquots (5 µL) of the diluted supernatants were analyzed using LC-MS/MS.
(§3) The metabolites formed from CYP substrates were simultaneously quantified using our previously described LC-MS/MS method. […]

The next series concerns the target CYP2C9 (Homo sapiens, UniProt P11712). Nature of the series: CYP2C9-catalyzed diclofenac 4′-hydroxylation in human liver microsomes (IC50 and time-dependent inhibition). It is filed as in vitro ADME. Details: from tissue; host or cells: ultrapooled human liver microsomes. As for the experimental part:
as §1, §2, §3

The conditions of series [1]: human liver microsomes; cited from earlier work.
[2] abbreviates: up to 50 µM, without 30-min preincubation, human liver microsomes.

CYP3A4, sequence (P08684 whole entry): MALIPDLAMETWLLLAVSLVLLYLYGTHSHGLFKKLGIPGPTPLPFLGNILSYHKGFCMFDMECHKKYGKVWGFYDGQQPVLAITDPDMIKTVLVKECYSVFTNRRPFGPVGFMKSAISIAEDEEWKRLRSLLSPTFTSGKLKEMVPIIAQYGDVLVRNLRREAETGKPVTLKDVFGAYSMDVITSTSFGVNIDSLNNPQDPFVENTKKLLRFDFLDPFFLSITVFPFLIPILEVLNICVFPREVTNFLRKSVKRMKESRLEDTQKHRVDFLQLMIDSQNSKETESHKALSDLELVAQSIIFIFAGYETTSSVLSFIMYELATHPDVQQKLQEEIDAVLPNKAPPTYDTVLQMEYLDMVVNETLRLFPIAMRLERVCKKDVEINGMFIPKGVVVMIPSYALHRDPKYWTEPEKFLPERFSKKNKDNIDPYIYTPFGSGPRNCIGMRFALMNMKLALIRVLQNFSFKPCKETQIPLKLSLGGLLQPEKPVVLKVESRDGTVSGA
CYP2C9, sequence (P11712 whole entry): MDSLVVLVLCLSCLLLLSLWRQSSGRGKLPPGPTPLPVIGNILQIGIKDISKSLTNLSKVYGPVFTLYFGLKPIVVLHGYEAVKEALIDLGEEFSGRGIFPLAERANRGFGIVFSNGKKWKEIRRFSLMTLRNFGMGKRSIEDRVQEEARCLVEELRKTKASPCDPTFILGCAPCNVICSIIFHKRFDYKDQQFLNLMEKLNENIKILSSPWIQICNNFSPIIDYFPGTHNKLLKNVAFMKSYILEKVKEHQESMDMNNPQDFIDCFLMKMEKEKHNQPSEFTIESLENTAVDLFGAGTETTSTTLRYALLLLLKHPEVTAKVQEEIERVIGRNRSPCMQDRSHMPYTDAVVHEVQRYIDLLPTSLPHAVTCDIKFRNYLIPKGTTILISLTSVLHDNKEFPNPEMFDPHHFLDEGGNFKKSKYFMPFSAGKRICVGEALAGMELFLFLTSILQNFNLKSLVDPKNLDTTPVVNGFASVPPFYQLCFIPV
T1 sequence (P10635 whole entry): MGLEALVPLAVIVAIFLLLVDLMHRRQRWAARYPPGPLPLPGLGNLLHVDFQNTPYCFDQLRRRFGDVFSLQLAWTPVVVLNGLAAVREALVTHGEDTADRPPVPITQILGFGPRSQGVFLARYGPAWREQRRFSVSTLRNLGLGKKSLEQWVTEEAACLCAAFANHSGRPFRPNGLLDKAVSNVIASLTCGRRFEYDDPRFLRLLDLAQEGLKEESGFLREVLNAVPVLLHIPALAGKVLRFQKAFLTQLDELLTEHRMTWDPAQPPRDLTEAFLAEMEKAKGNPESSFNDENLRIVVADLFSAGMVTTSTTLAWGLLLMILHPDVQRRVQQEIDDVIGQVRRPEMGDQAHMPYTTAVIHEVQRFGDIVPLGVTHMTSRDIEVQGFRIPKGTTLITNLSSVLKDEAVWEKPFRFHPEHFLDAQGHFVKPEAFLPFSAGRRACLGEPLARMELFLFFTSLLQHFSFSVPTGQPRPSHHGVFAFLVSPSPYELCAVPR

The IC50 is the concentration needed to halve the response being measured. The term kinact denotes the rate constant of inactivation at saturating inhibitor. Regarding `CCc1ccc(C(=O)c2cn(CCCCCF)c3ccccc23)c2ccccc12` [EAM-2201, (4-ethyl-1-naphthalenyl)[1-(5-fluoropentyl)-1H-indol-3-yl]-methanone], on CYP2D6, the “inhibition of CYP2D6-mediated bufuralol 1′-hydroxylation” value was “negligibly inhibited”. For the same compound, the half-maximal inhibitory concentration (IC50) was 17.6 µM on CYP3A4 and 6.7 µM at CYP2C9. Besides, the “kinact/Ki value for CYP3A4” value at CYP3A4 (human liver microsomes) came out at 102 M⁻¹ s⁻¹. Moreover, the kinact on CYP3A4 (human, ultrapooled human liver microsomes, pH 7.4, probe midazolam (2 µM), 1′-hydroxylation, read-out: kinact, time-dependent inhibition of CYP3A4 midazolam 1′-hydroxylase (converted)) is 0.000417 s⁻¹; at CYP2C9 (human, ultrapooled human liver microsomes, pH 7.4, probe diclofenac (10 µM), 4′-hydroxylation, read-out: kinact, time-dependent inhibition of CYP2C9 diclofenac 4′-hydroxylase (converted)), 0.00077 s⁻¹. For the same compound, at CYP3A4 (setting [2]), the “inhibition of CYP3A4-mediated midazolam 1′-hydroxylation” value is “negligibly inhibited”. For the same compound, the “inactivation efficiency (kinact/Ki), CYP2C9” value on CYP2C9 (human liver microsomes) amounted to 257 M⁻¹ s⁻¹. Besides, the “inhibition of CYP2C9-catalyzed diclofenac 4′-hydroxylation” value on CYP2C9 (setting [2]) is given as “negligibly inhibited”. Also, the number of metabolites in series [1] is 37 metabolites.
